Experiments:
[1] = biological target: Mas receptor; conditions: Dong et al., Cell 2001; read-out: EC50, affinity with Mas receptor; cited from earlier work
[2] = biological target: T1, AT1 receptor (Homo sapiens, UniProt P30556); conditions: Jankowski et al. 2007; cited from earlier work
T1 sequence (P30556 1-359): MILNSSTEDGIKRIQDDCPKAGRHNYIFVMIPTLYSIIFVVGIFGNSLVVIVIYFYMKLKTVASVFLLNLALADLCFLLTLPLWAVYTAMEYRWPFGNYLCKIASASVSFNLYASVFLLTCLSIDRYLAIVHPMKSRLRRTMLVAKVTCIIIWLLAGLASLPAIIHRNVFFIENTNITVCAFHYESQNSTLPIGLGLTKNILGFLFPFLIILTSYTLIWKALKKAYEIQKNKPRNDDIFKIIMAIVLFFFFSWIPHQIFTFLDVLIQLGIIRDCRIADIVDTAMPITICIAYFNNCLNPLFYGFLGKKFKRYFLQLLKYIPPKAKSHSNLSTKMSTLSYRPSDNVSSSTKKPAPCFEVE

[3] = tested on: wild-type mice; conditions: Jankowski et al. 2007; cited from earlier work
[4] = biological target: T2, AT2 receptor (Homo sapiens, UniProt P50052); conditions: Jankowski et al. 2007; cited from earlier work
T2 sequence (P50052 1-363): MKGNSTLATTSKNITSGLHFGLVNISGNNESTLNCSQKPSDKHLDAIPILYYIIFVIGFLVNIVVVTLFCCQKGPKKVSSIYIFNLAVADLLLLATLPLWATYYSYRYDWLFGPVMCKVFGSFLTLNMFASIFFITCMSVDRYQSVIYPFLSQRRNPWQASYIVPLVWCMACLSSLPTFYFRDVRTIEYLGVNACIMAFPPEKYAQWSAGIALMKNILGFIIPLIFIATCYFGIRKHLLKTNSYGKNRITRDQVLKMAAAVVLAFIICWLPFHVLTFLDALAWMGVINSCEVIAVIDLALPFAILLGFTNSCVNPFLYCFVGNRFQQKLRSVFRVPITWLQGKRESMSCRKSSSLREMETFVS

[5] = biological target: T3, angiotensin converter enzyme (ACE) (Rattus norvegicus, UniProt P47820); experiment: Plasmatic ACE activity, fluorimetric method with Hip-His-Leu substrate; format: biochemical, Wistar rats; conditions: 5 mM enalaprilate, assay specificity control
T3 construct: from tissue; host or cells: plasma of Wistar rats
T3 sequence (P47820 36-1238 limits assumed): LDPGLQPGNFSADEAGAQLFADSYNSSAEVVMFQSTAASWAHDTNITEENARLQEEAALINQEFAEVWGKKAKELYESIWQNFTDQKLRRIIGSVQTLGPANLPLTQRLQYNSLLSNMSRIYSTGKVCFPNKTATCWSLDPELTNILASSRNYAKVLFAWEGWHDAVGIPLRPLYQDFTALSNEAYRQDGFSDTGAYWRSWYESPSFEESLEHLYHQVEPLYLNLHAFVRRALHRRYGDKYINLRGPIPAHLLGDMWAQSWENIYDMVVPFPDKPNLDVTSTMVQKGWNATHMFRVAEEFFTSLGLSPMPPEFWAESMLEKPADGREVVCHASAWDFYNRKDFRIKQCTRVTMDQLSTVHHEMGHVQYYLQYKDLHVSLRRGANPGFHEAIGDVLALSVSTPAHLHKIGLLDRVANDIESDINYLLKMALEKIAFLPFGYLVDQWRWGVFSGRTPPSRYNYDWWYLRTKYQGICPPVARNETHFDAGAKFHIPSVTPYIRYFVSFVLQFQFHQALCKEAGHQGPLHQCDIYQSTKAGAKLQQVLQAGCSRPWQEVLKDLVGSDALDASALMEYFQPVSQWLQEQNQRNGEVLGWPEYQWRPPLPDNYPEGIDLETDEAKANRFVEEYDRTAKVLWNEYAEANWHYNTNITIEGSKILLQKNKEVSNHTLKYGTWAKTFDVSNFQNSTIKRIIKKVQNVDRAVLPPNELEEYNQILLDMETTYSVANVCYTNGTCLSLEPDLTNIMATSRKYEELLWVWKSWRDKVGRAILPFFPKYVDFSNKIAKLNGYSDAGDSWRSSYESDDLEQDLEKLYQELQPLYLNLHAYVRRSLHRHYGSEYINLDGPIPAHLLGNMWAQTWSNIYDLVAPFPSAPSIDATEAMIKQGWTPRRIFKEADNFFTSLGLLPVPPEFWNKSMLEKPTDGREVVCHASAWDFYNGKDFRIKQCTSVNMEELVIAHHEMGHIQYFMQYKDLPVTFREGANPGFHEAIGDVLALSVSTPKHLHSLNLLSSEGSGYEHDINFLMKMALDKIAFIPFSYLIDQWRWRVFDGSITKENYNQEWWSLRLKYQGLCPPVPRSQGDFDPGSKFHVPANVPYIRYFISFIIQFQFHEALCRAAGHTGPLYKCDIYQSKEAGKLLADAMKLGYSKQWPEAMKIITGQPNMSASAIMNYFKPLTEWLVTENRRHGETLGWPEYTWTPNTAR
Protocol: The plasmatic activity of ACE was measured by the fluorimetric method using Hip-His-Leu as substrate, as previously described (Santos, R. A. S. et al., Hypertension, 7:244-52, (1985)). Plasma aliquots (10 μL) of Wistar rats were incubated with a […] solution containing a 1 mM substrate (Hip-His-Leu) and 0.4 M of sodium borate, 0.9 M NaCl (pH=8.3) for 15 minutes at 37° C. The reaction was halted by adding 1.2 mL of NaOH at 0.34 M and […] of orthoftaldehyde (20 mg/mL in methanol). After 10 minutes at environment temperature, […] of HCl at 3 N was added. Later on, after a 5-minute 800×g centrifugation, the floating solution fluorescence was measured (a 365 nm excitation and a 495 nm emission). The blank was prepared by inverting the addition order of plasma and NaOH. A 0.5 to 20 nmol curve, containing the product (His-Leu) resulting of the substrate break (Hip-His-Leu) by ACE plasmatic activity, was prepared in each assay. In order to test the inhibition effect of ACE by the PEPTIDEs Ang-(1-7) and Ala^1-Ang-(1-7), 3.3×10^−7 or 3.3×10^−6 M of each PEPTIDE was added before the plasma addition. […] The percentage of enzymatic activity inhibition was estimated in function of the maximum activity obtained.

NPFF: one PEPTIDE called NPFF, which had shown affinity with the Mas receptor, though reasonably feeble
EC50 [1]: ~400 nM

Ala^1-Arg^2-Val^3-Tyr^4-Ile^5-His^6-Pro^7-Phe^8 (ARVYIHPF; Angiotensin-2; UniProt P01019 25-32, looked up, variant D1A) [Ala^1-Ang II]
affinity with AT1 receptor compared with Ang II [2]: does not substantially differ from Ang II
pressor activity compared with Ang II [3]: only a fraction of the Ang II activity
affinity with AT2 receptor compared with Ang II [4]: does not substantially differ from Ang II

C[C@H](N[C@@H](CCc1ccccc1)C(=O)O)C(=O)N1CCC[C@H]1C(=O)O [enalaprilate]
inhibition of the ACE activity [5]: 98%

Source: patent US9974825B2, “Peptides Des-[Asp1]-[Ala1], angiotensin-(1-7) agonist and pharmaceutical compositions for the treatment of diseases” (UNIVERSIDADE FEDERAL DE MINAS GERAIS, priority 2008, dated 2018)
